# Measured values reported in patent US20090111743A1, “Cysteine-branched heparin-binding growth factor analogs” (BioSurface Engineering Technologies, Inc., priority 2005, published 2009).
# Where no end group is shown, it is not given here. Side-chain parts run from the residue outwards. CX1X1X1RKRLDRIAR‑NH2 = not defined here; bMB = bis-maleimidobutane
# Experiments:
# Format in all cases: cell-based
# [1] = tested on: MC3T3E1 osteoblastic cells; experiment: Cell growth study, MTS relative cell number, MC3T3E1 cells; settings: for % OF CONTROL VALUE / MEAN ABSORBANCE: 3 days in culture, MTS
# Procedure: (§1) The synthetic branched peptide construct of Example 4 was tested in cell growth studies, to determine the ability of the synthetic branched peptide construct to stimulate cell growth. Cell growth was monitored using a commercially available kit (Promega Corporation, Madison, Wis.) based on a tetrazolium compound (3-(4,5-dimethylthiazol-2-yl)-5-(3-carboxymethoxyphenyl)-2-(4-sulfophenyl)-2H-tetrazolium, inner salt (MTS). Aliquots of 10^3 cells were seeded into wells of 96-well plates and allowed to attach. The medium was then replaced with a low serum medium containing between 0 and 10 μg/mL of the synthetic branched peptide construct of Example 4. After 3 days in culture, the relative cell number was monitored using MTS following the directions of the manufacturer. Statistical significance was determined using ANOVA followed by post-hoc multiple comparisons versus control group (Dunnett's Method).
# (§2) MC3T3E1 osteoblastic cells, C3H10T1/2 mouse pluripotent stem cells, C2C12 murine myoblasts, and cells from a human fetal osteoblast cell line (hFOB) were obtained from the American Type Culture Collection (Manassas, Va.) and were maintained in DMEM:F12 medium containing newborn calf serum and antibiotics. MC3T3E1, C3H10T1/2, and hFOB cells were positive for growth induction by synthetic branched peptide construct of […] as shown in Table 3 below. The effective concentration was between 1 and 10 μg/mL. C2C12 was negative for growth using the synthetic branched peptide construct of Example 4.
# [2] = tested on: C2C12 murine myoblasts; experiment: Cell growth study, MTS relative cell number, C2C12 cells; settings: for % OF CONTROL VALUE / MEAN ABSORBANCE: 3 days in culture, MTS
# Procedure: as §1, §2
# [3] = tested on: human fetal osteoblast cell line (hFOB); experiment: Cell growth study, MTS relative cell number, hFOB cells; settings: for % OF CONTROL VALUE / MEAN ABSORBANCE: hFOB, 3 days in culture, MTS
# Procedure: as §1, §2
# [4] = tested on: C3H10T1/2 mouse pluripotent stem cells; experiment: Cell growth study, MTS relative cell number, C3H10T1/2 cells; settings: for % OF CONTROL VALUE / MEAN ABSORBANCE: 3 days in culture, MTS
# Procedure: as §1, §2
substance,measurement,setting,value
"NH2-LYVDFSDVGWNDWC(bMB-CX1X1X1RKRLDRIAR-amide)-AISMLYLDENEKVVL-amide (chain 1 H-LYVDFSDVGWNDWC([bMB-CX1X1X1RKRLDRIAR‑NH2]); chain 2 AISMLYLDENEKVVL-NH2; reading uncertain; also: chains 1 and 2 form one continuous backbone (C14 of chain 1 peptide-bonded to A1 of chain 2), printed as NH2-LYVDFSDVGWNDWC(bMB-CX1X1X1RKRLDRIAR-amide)-AISMLYLDENEKVVL-amide) [Example 4, heterodimeric BMP-2 analog branched via cysteine and 1,4-bis-maleimidobutane; X1 is 6-aminohexanoic acid]",% OF CONTROL VALUE,"[1]; MC3T3E1, 0.5 μg/mL",103%
same,MEAN ABSORBANCE,"[1]; MC3T3E1, 0.5 μg/mL",0.74
same,% OF CONTROL VALUE,"[1]; MC3T3E1, 1 μg/mL",99%
same,MEAN ABSORBANCE,"[1]; MC3T3E1, 1 μg/mL",0.71
same,% OF CONTROL VALUE,"[1]; MC3T3E1, 2 μg/mL",138%
same,MEAN ABSORBANCE,"[1]; MC3T3E1, 2 μg/mL",0.99
same,% OF CONTROL VALUE,"[1]; MC3T3E1, 5 μg/mL",133%
same,MEAN ABSORBANCE,"[1]; MC3T3E1, 5 μg/mL",0.96
same,% OF CONTROL VALUE,"[1]; MC3T3E1, 10 μg/mL",134%
same,MEAN ABSORBANCE,"[1]; MC3T3E1, 10 μg/mL",0.96
same,growth induction,"[1]; MC3T3E1 cells, 0 to 10 μg/mL, 3 days",positive
same,% OF CONTROL VALUE,"[2]; C2C12, 0.5 μg/mL",99%
same,MEAN ABSORBANCE,"[2]; C2C12, 0.5 μg/mL",0.30
same,% OF CONTROL VALUE,"[2]; C2C12, 1 μg/mL",101%
same,MEAN ABSORBANCE,"[2]; C2C12, 1 μg/mL",0.30
same,% OF CONTROL VALUE,"[2]; C2C12, 2 μg/mL",99%
same,MEAN ABSORBANCE,"[2]; C2C12, 2 μg/mL",0.30
same,% OF CONTROL VALUE,"[2]; C2C12, 5 μg/mL",99%
same,MEAN ABSORBANCE,"[2]; C2C12, 5 μg/mL",0.30
same,% OF CONTROL VALUE,"[2]; C2C12, 10 μg/mL",90%
same,MEAN ABSORBANCE,"[2]; C2C12, 10 μg/mL",0.27
same,growth induction,"[2]; C2C12 cells, 0 to 10 μg/mL, 3 days",negative
same,growth induction,"[3]; hFOB cells, 0 to 10 μg/mL, 3 days",positive
same,% OF CONTROL VALUE,[3]; 0.5 μg/mL,121%
same,MEAN ABSORBANCE,[3]; 0.5 μg/mL,0.58
same,% OF CONTROL VALUE,[3]; 1 μg/mL,131%
same,MEAN ABSORBANCE,[3]; 1 μg/mL,0.62
same,% OF CONTROL VALUE,[3]; 2 μg/mL,135%
same,MEAN ABSORBANCE,[3]; 2 μg/mL,0.64
same,% OF CONTROL VALUE,[3]; 5 μg/mL,127%
same,MEAN ABSORBANCE,[3]; 5 μg/mL,0.60
same,% OF CONTROL VALUE,[3]; 10 μg/mL,130%
same,MEAN ABSORBANCE,[3]; 10 μg/mL,0.62
same,% OF CONTROL VALUE,"[4]; C3H10T1/2, 0.5 μg/mL",147%
same,MEAN ABSORBANCE,"[4]; C3H10T1/2, 0.5 μg/mL",0.41
same,% OF CONTROL VALUE,"[4]; C3H10T1/2, 1 μg/mL",152%
same,MEAN ABSORBANCE,"[4]; C3H10T1/2, 1 μg/mL",0.42
same,% OF CONTROL VALUE,"[4]; C3H10T1/2, 2 μg/mL",158%
same,MEAN ABSORBANCE,"[4]; C3H10T1/2, 2 μg/mL",0.44
same,% OF CONTROL VALUE,"[4]; C3H10T1/2, 5 μg/mL",156%
same,MEAN ABSORBANCE,"[4]; C3H10T1/2, 5 μg/mL",0.43
same,% OF CONTROL VALUE,"[4]; C3H10T1/2, 10 μg/mL",144%
same,MEAN ABSORBANCE,"[4]; C3H10T1/2, 10 μg/mL",0.40
same,growth induction,"[4]; C3H10T1/2 cells, 0 to 10 μg/mL, 3 days",positive
